For experiment [1], the target named is E3 ubiquitin-protein ligase CBL. The experiment in a line: Inhibition of c-Cbl (unknown origin) by HTRF method.
The target is the same in experiment [2]. The experiment in a line: Inhibition of c-Cbl (unknown origin) by TR-FRET assay.
For experiment [3] the target is unchanged. Put plainly: Inhibition of c-Cbl (unknown origin) expressed in Escherichia coli measured for 90 mins by HTRF method.
For experiment [4], the target named is E3 ubiquitin-protein ligase CBL (Homo sapiens) (UniProt P22681). The experiment in a line: Binding affinity to c-Cbl (unknown origin) assessed as dissociation constant by SPR assay.

In the case of `CC(C)[C@H]1CN(C)CCN1Cc1cc(C(=O)Nc2cccc(C3([C@@H](F)c4nncn4C)CC(F)(F)C3)c2)nc(C2CC2)c1`, the IC50 in experiment [1] was 8 nM.

`Cn1cnnc1-c1cc(C#N)ccc1-c1cc(C2CC2)nc(N2Cc3c(cc(CNCC4(F)CCC4)cc3C(F)(F)F)C2=O)c1` had an IC50 in experiment [1] of less than 200 nM.

For the molecule `C[C@H]1CCCN(Cc2cc(C(F)(F)F)c3[nH]c(-c4cccc([C@]5(c6nncn6C)C[C@@H](C)C5)c4)nc3c2)C1`, the IC50 in experiment [2] is more than 10000 nM.

`Cn1cnnc1[C@]1(c2cccc(NC(=O)c3cc(CN4CCC[C@H](C(F)F)C4)cn4ccnc34)c2)C[C@H](CC#N)C1` gave an IC50 in experiment [3] of 10 nM.

With `CC(c1cc(C(=O)Nc2cccc([C@]3(c4nncn4C)C[C@@H](CC#N)C3)c2)nc2cc[nH]c12)N1CCC[C@H](C)C1` (stereo partly specified), half-maximal inhibition in experiment [3] (IC50) was put at 40 nM.

Turning to `COCC1(NCc2cc3c(c(C(F)(F)F)c2)CN(c2cccc([C@]4(c5nncn5C)C[C@H](OC)C4)c2)C3=O)CC1` [2-(3-((1r,3r)-3-methoxy-1-(4-methyl-4H-1,2,4-triazol-3-yl)cyclobutyl)phenyl)-6-(((1-(methoxymethyl)cyclopropyl)amino)methyl)-4-(trifluoromethyl)isoindolin-1-one], the equilibrium dissociation constant (Kd) in experiment [4] came to 210 nM.

(Values after BindingDB's records for PubMed 38457911 (China Pharmaceutical University).)
